The values that follow come from US8916557B2, “Substituted 4-Aryl-N-phenyl-1,3,5-triazin-2-amines” (Bayer Intellectual Property GmbH, priority 2011, dated 2014).

For one assay, the target named is T1, CDK9/CycT1 (Homo sapiens, UniProt P50750).
T1 construct: Recombinant full-length His-tagged human CDK9 and CycT1; His; purchased Invitrogen PV4131; host or cells: insect cells
The experiment in a line: CDK9/CycT1 kinase assay (TR-FRET). Format: biochemical. The following applies: Method 1, 10 μM ATP. The source says: 1. CDK9/CycT1 Kinase Assay:
CDK9/CycT1-inhibitory activity of compounds of the present invention was quantified employing the CDK9/CycT1 TR-FRET assay as described in the following paragraphs:
Recombinant full-length His-tagged human CDK9 and CycT1, expressed in insect cells and purified by Ni-NTA affinity chromatography, were purchased from Invitrogen (Cat. No PV4131). As substrate for the kinase reaction biotinylated peptide biotin-Ttds-[…] (C-terminus in amid form) was used which can be purchased e.g. form the company JERINI Peptide Technologies (Berlin, Germany). For the assay 50 nl of a 100fold concentrated solution of the test compound in DMSO was pipetted into a black low volume 384well microtiter plate (Greiner Bio-One, Frickenhausen, Germany), 2 μl of a solution of CDK9/CycT1 in aqueous assay buffer [50 mM Tris/HCl pH 8.0, 10 mM MgCl2, 1.0 mM dithiothreitol, 0.1 mM sodium ortho-vanadate, 0.01% (v/v) Nonidet-P40 (Sigma)] were added and the mixture was incubated for 15 min at 22° C. to allow pre-binding of the test compounds to the enzyme before the start of the kinase reaction. Then the kinase reaction was started by the addition of 3 μl of a solution of adenosine-tri-phosphate (ATP, 16.7 μM=>final conc. in the 5 μl assay volume is 10 μM) and substrate (1.67 μM=>final conc. in the 5 μl assay volume is 1 μM) in assay buffer and the resulting mixture was incubated for a reaction time of 25 min at 22° C. The concentration of CDK9/CycT1 was adjusted depending of the activity of the enzyme lot and was chosen appropriate to have the assay in the linear range, typical concentrations were in the range of 1 μg/ml. The reaction was stopped by the addition of 5 μl of a solution of TR-FRET detection reagents (0.2 μM streptavidine-XL665 [Cisbio Bioassays, Codolet, France] and 1 nM anti-RB(pSer807/pSer811)-antibody from BD Pharmingen [#558389] and 1.2 nM LANCE EU-W1024 labeled anti-mouse IgG antibody [Perkin-Elmer, product no. AD0077]) in an aqueous EDTA-solution (100 mM EDTA, 0.2% (w/v) bovine serum albumin in 100 mM HEPES/NaOH pH 7.0).
(§1) The resulting mixture was incubated 1 h at 22° C. to allow the formation of complex between the phosphorylated biotinylated peptide and the detection reagents. Subsequently the amount of phosphorylated substrate was evaluated by measurement of the resonance energy transfer from the Eu-chelate to the streptavidine-XL. Therefore, the fluorescence emissions at 620 nm and 665 nm after excitation at 350 nm was measured in a HTRF reader, e.g. a Rubystar (BMG Labtechnologies, Offenburg, Germany) or a Viewlux (Perkin-Elmer). The ratio of the emissions at 665 nm and at 622 nm was taken as the measure for the amount of phosphorylated substrate.
In general terms: TR-FRET usually uses a lanthanide donor and a delayed reading to cut background.

In the next assay the target is T2, CDK2/CycE (Homo sapiens, UniProt P24941).
T2 construct: GST; purchased ProQinase GmbH (Freiburg, Germany); host or cells: insect cells (Sf9)
In words: CDK2/CycE kinase assay (TR-FRET). It counts as biochemical. The following applies: Method 2, 10 μM ATP.
Excerpt: 2. CDK2/CycE Kinase Assay:
CDK2/CycE-inhibitory activity of compounds of the present invention was quantified employing the CDK2/CycE TR-FRET assay as described in the following paragraphs:
Recombinant fusion proteins of GST and human CDK2 and of GST and human CycE, expressed in insect cells (Sf9) and purified by Glutathion-Sepharose affinity chromatography, were purchased from ProQinase GmbH (Freiburg, Germany). As substrate for the kinase reaction biotinylated peptide biotin-Ttds-[…] (C-terminus in amid form) was used which can be purchased e.g. form the company JERINI Peptide Technologies (Berlin, Germany).
For the assay 50 nl of a 100fold concentrated solution of the test compound in DMSO was pipetted into a black low volume 384well microtiter plate (Greiner Bio-One, Frickenhausen, Germany), 2 μl of a solution of CDK2/CycE in aqueous assay buffer [50 mM Tris/HCl pH 8.0, 10 mM MgCl2, 1.0 mM dithiothreitol, 0.1 mM sodium ortho-vanadate, 0.01% (v/v) Nonidet-P40 (Sigma)] were added and the mixture was incubated for […] at 22° C. to allow pre-binding of the test compounds to the enzyme before the start of the kinase reaction. Then the kinase reaction was started by the addition of 3 μl of a solution of adenosine-tri-phosphate (ATP, 16.7 μM=>final conc. in the 5 it assay volume is 10 μM) and substrate (1.25 μM=>final conc. in the 5 it assay volume is 0.75 μM) in assay buffer and the resulting mixture was incubated for a reaction time of […] at 22° C. The concentration of CDK2/CycE was adjusted depending of the activity of the enzyme lot and was chosen appropriate to have the assay in the linear range, typical concentrations were in the range of 130 ng/ml. The reaction was stopped by the addition of 5 it of a solution of TR-FRET detection reagents (0.2 μM streptavidine-XL665 [Cisbio Bioassays, Codolet, France] and 1 nM anti-RB(pSer807/pSer811)-antibody from BD Pharmingen [#558389] and 1.2 nM LANCE EU-W1024 labeled anti-mouse IgG antibody [Perkin-Elmer, product no. AD0077]) in an aqueous EDTA-solution (100 mM EDTA, 0.2% (w/v) bovine serum albumin in 100 mM HEPES/NaOH pH 7.0).
as §1, with “TR-FRET” for “HTRF”

The test system of assay [1] is HeLa human cervical tumour cells. In words: Proliferation assay (crystal violet), HeLa. It counts as cell-based. The following applies: read-out: Inhibition of HeLa cell proliferation.
Method: Cultivated tumour cells (NCI-H460, human non-small cell lung carcinoma cells, ATCC HTB-177; DU 145, hormone-independent human prostate carcinoma cells, ATCC HTB-81; HeLa-MaTu, human cervical carcinoma cells, EPO-GmbH, Berlin; HeLa-MaTu-ADR, multidrug-resistant human cervical carcinoma cells, EPO-GmbH, Berlin; HeLa human cervical tumour cells, ATCC CCL-2; Caco-2 human colorectal carcinoma, ATCC HTB-37; B16F10 mouse melanoma cells, ATCC CRL-6475) were plated at a density of 5000 cells/well (DU145, HeLa-MaTu-ADR), 3000 cells/well (NCI-H460, HeLa-MaTu, HeLa), 1500 cells/well (Caco-2), or 1000 cells/well (B16F10) in a 96-well multititer plate in 200 μL of their respective growth medium supplemented 10% fetal calf serum. After 24 hours, the cells of one plate (zero-point plate) were stained with crystal violet (see below), while the medium of the other plates was replaced by fresh culture medium (200 μl), to which the test substances were added in various concentrations (0 μM, as well as in the range of 0.001-10 μM; the final concentration of the solvent dimethyl sulfoxide was 0.5%). The cells were incubated for 4 days in the presence of test substances. Cell proliferation was determined by staining the cells with crystal violet: the cells were fixed by adding 20 μl/measuring point of an 11% glutaric aldehyde solution for 15 minutes at room temperature. After three washing cycles of the fixed cells with water, the plates were dried at room temperature. The cells were stained by adding 100 μl/measuring point of a 0.1% crystal violet solution (pH 3.0). After three washing cycles of the stained cells with water, the plates were dried at room temperature. The dye was dissolved by adding 100 μl/measuring point of a 10% acetic acid solution. The extinction was determined by photometry at a wavelength of 595 nm. The change of cell number, in percent, was calculated by normalization of the measured values to the extinction values of the zero-point plate (=0%) and the extinction of the untreated (0 μm) cells (=100%). The IC50 values were determined by means of a 4 parameter fit.

SMILES strings stand for the structures.

T1 sequence (P50750 whole entry): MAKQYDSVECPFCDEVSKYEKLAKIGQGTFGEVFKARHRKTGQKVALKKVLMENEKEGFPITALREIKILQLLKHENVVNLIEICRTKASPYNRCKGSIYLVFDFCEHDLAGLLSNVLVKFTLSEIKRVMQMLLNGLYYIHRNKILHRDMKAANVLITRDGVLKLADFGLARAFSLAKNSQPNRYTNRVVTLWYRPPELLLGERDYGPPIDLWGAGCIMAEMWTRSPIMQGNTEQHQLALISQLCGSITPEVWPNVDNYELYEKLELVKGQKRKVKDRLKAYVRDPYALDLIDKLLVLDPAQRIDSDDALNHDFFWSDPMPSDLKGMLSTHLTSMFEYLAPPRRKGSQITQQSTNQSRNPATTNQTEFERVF
T1 sequence (O60563 whole entry partner): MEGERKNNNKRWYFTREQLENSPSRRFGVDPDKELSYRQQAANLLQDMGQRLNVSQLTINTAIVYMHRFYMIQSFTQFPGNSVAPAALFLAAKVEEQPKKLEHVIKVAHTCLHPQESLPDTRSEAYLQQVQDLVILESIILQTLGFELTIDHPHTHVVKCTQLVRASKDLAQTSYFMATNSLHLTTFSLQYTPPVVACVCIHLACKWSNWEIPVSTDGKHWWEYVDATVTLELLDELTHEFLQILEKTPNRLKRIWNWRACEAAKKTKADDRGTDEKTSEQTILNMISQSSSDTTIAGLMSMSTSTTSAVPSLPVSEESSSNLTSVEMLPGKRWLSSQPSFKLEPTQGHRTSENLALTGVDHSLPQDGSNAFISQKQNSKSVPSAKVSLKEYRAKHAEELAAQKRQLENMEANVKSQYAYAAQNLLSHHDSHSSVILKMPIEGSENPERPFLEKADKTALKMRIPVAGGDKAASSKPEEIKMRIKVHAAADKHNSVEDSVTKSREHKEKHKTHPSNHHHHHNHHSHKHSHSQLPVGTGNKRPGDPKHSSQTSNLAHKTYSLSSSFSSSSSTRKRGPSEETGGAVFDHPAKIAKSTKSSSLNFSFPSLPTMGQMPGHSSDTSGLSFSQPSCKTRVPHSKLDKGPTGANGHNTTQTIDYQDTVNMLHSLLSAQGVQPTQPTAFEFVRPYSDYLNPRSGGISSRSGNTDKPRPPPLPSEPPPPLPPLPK

For `CS(=O)(=O)Cc1cccc(Nc2ncnc(-c3ccc(F)cc3OC3CC3)n2)c1` [Example 41, 4-[2-(Cyclopropyloxy)-4-fluorophenyl]-N-{3-[(methylsulfonyl)methyl]phenyl}-1,3,5-triazin-2-amine], the IC50 was determined as 29 nM at CDK9/CycT1, 1000 nM on CDK2/CycE and 900 nM in assay [1].

Regarding `C[C@@H](Oc1cc(F)ccc1-c1ncnc(Nc2cccc(CS(C)(=O)=O)c2)n1)c1ccc(F)cc1` [Example 67, 4-{4-Fluoro-2-[(1R)-1-(4-fluorophenyl)ethoxy]phenyl}-N-{3-[(methylsulfonyl)-methyl]phenyl}-1,3,5-triazin-2-amine], the IC50 against CDK9/CycT1 came out at 8 nM; on CDK2/CycE, 1300 nM; in assay [1] it was 1600 nM.

In the case of `CC(C)S(=O)(=O)Cc1cccc(Nc2ncnc(-c3cc(F)ccc3OCc3cccc(F)c3)n2)c1` [Example 38, 4-{5-Fluoro-2-[(3-fluorobenzyl)oxy]phenyl}-N-{3-[(prop-2-ylsulfonyl)methyl]phenyl}-1,3,5-triazin-2-amine], the IC50 on CDK9/CycT1 worked out at 6 nM; at CDK2/CycE, 320 nM; in assay [1] it was 840 nM.

For the molecule `CS(=O)(=O)Cc1cccc(Nc2ncnc(-c3ccc(F)cc3OCC3CCCCC3)n2)c1` [Example 57, 4-[2-(Cyclohexylmethoxy)-4-fluorophenyl]-N-{3-[(methylsulfonyl)methyl]phenyl}-1,3,5-triazin-2-amine], the results for the IC50 (against CDK9/CycT1; at CDK2/CycE; in assay [1]) were 7 nM, 2400 nM and 1100 nM, respectively.

On to `CS(=O)(=O)Cc1cccc(Nc2ncnc(-c3ccc(F)cc3OCCCF)n2)c1` [Example 54, 4-[4-Fluoro-2-(3-fluoropropoxy)phenyl]-N-{3-[(methylsulfonyl)methyl]phenyl}-1,3,5-triazin-2-amine], for which the IC50 on CDK9/CycT1 was found to be 29 nM; on CDK2/CycE it was 1500 nM; in assay [1], 1300 nM.

In the case of `CC(C)S(=O)(=O)Cc1cccc(Nc2ncnc(-c3ccccc3OCc3cccc(Cl)c3)n2)c1` [Example 34, 4-{2-[(3-Chlorobenzyl)oxy]phenyl}-N-{3-[(propan-2-ylsulfonyl)methyl]phenyl}-1,3,5-triazin-2-amine], the figures for the IC50 (against CDK9/CycT1; on CDK2/CycE; in assay [1]) were 10 nM, 800 nM and 1200 nM, respectively.

As for `CC(Oc1cc(F)ccc1-c1ncnc(Nc2cccc(CS(C)(=O)=O)c2)n1)c1ccccc1` (racemic) [Example 68, rac-4-[4-Fluoro-2-(1-phenylethoxy)phenyl]-N-{3-[(methylsulfonyl)methyl]phenyl}-1,3,5-triazin-2-amine], the IC50 at CDK9/CycT1 amounted to 16 nM; at CDK2/CycE, 1100 nM; in assay [1], 1400 nM.

For the molecule `COCCS(=O)(=O)Cc1cccc(Nc2ncnc(-c3ccc(F)cc3OC)n2)c1` [Example 23, 4-(4-Fluoro-2-methoxyphenyl)-N-(3-{[(2-methoxyethyl)sulfonyl]methyl}phenyl)-1,3,5-triazin-2-amine], the IC50 on CDK9/CycT1 came to 12 nM; at CDK2/CycE it was 1300 nM; in assay [1] it was 930 nM.

On to `Cc1ccc(COc2cc(F)ccc2-c2ncnc(Nc3cccc(CS(C)(=O)=O)c3)n2)cc1` [Example 77, 4-{4-Fluoro-2-[(4-methylbenzyl)oxy]phenyl}-N-{3-[(methylsulfonyl)-methyl]phenyl}-1,3,5-triazin-2-amine], for which the IC50 on CDK9/CycT1 came to 13 nM; against CDK2/CycE it was 1600 nM; in assay [1], 1000 nM.

In the case of `C[C@@H](Oc1cc(F)ccc1-c1ncnc(Nc2cccc(CS(C)(=O)=O)c2)n1)c1ccccc1` [Example 79, 4-{4-Fluoro-2-[(1R)-1-phenylethoxy]phenyl}-N-{3-[(methylsulfonyl)methyl]phenyl}-1,3,5-triazin-2-amine], the IC50 turned out to be 3 nM against CDK9/CycT1, 440 nM against CDK2/CycE and 920 nM in assay [1].

Consider `COc1cc(F)ccc1-c1ncnc(Nc2cccc(CS(=O)(=O)C3CCCC3)c2)n1` [Example 36, N-{3-[(Cyclopentylsulfonyl)methyl]phenyl}-4-(4-fluoro-2-methoxyphenyl)-1,3,5-triazin-2-amine], for which the IC50 on CDK9/CycT1 amounted to 17 nM; against CDK2/CycE it was 880 nM; in assay [1], 1000 nM.
